From patent publication US5208364A, “Antibiotic 5-lipoxygenase inhibitors” (Bristol-Myers Squibb Co., priority 1992, dated 1993)

Assays:
rat 5-LPO = molecular target: T1, rat 5-LPO (Rattus norvegicus, UniProt P12527); experiment: 5-LPO inhibitory activity (5-HETE produced in cell-free extract of rat basophilic leukemia RBL-1 cells, HPLC); type: biochemical; conditions: arachidonic acid substrate, 37° C., 5 minutes
T1 construct: produced in a cell-free extract of rat basophilic leukemia cells; endogenous in cells; host or cells: RBL-1 rat basophilic leukemia cells (ATCC CRL 1378), cell-free extract
T1 sequence (P12527 1-673): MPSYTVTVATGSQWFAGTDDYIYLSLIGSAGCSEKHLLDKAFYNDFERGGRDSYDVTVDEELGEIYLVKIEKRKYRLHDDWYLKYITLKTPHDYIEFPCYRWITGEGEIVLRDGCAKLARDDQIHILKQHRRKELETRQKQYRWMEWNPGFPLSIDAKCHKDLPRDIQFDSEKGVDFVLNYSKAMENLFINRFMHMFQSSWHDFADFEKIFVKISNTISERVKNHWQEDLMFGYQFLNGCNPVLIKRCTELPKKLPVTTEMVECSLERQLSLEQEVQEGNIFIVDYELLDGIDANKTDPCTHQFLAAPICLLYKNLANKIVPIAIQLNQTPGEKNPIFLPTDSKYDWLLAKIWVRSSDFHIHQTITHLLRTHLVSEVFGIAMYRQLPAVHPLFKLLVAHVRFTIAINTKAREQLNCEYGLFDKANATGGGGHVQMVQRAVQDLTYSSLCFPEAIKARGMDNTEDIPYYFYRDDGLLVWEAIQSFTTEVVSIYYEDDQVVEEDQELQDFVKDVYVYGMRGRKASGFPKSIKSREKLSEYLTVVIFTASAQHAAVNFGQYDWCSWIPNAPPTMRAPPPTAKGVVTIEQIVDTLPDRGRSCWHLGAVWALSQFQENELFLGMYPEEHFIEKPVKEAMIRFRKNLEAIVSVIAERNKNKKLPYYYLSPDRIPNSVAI
Experimental: The assay method employed in this manuscript is a slight modification of that published by Hook, Yacobuci, O'Connor, Lee, Kerns, Krishnan, Matson and Hesler in "Identification of the inhibitory activity of carbazomycins B and C against 5-lipoxygenase: a new activity for these compounds", J. Antibiot. (1990) 43, 1347. Rat basophilic leukemia cells […]. They were harvested by centrifugation and washed twice with […] containing I mM EDTA. The cells were resuspended in the same buffer and sonicated. The suspension was centrifuged at 13,000×g to remove cell debris and the supernatant stored at -80° C.
Enzyme assays were conducted by diluting the cell-free extract to the desired specific enzyme activity with phosphate buffer saline (PBS) containing 28.5 mM phosphate, 1 mM ethylenediamine tetraacetic acid (EDTA), 0.9 mM adenosine triphosphate (ATP) and 0.9 mM glutathione. The cell-free extract solution (110 μ1) was preincubated at 37° C. for 2.5 minutes, followed by the addition of the test sample in 20 μl of DMSO-PBS (1:9, v/v). The reaction was started by the addition of 5 μl of substrate (2 mM arachidonic acid plus 25 mM CaC12 in ethanol-water, 3:1). After incubation for 5 minutes, the reaction was terminated by the addition of 135 μl of ethanol and the solution centrifuged to remove precipitated protein. The 5-hydroxyeicosatetraenoic acid (5-HETE) in the supernatant was analyzed by HPLC as described below.
The inhibitory effect of a fermentation broth extract or a purified preparation was determined by measuring the amount of 5-hydroxyeicosatetraenoic acid (5-HETE) produced in a cell-free extract of rat basophilic leukemia cells (RBL-I cells, ATCC CRL 1378) in the presence of a test sample, arachidonic acid, adenosine triphosphate, CaC12 and glutathione. […] The concentration of 5-HETE was spectrophotometrically measured at 230 nm with a Gilson 115 UV detector and a Hewlett Packard 3396 A integrator.

[1] = Solubility (physico-chemical properties); type: physicochemical

IC50 (rat 5-LPO) [µM] | solubility in methanol, ethanol, ethyl acetate, chloroform and dimethyl sulfoxide [1] | solubility in n-hexane [1] | solubility in water [1] | Structure (SMILES)
3.4 | soluble | slightly soluble | insoluble | CC(C)CCCCCCCOC(=O)c1cc(O)ccc1N [IA, Isodecyl 5-hydroxyanthranilate]
6.3 | soluble | slightly soluble | insoluble | CC(C)CCCCCCCCCOC(=O)c1cc(O)ccc1N [Compound IC, Isolauryl 5-hydroxyanthranilate]
4.9 | soluble | slightly soluble | insoluble | CC(C)CCCCCCCCOC(=O)c1cc(O)ccc1N [IB, Isoundecyl 5-hydroxyanthranilate]
